# Source: PubChem BioAssay (NCI)
#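 Protocol summary: plate cells (96-well), add compound at 5 concentrations, incubate 48 h, interpolate endpoints linearly. The concentration for full growth arrest is given as TGI.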
# Assays:
# Experiment in all cases: NCI anticancer screen, dose series, 48 h
# A498 renal = system: A498 renal
# CAKI-1 renal = system: CAKI-1 renal
# CCRF-CEM leukemia = system: CCRF-CEM leukemia
# COLO 205 colon = system: COLO 205 colon
# DU-145 prostate = system: DU-145 prostate
# HCT-116 colon = system: HCT-116 colon
# HCT-15 colon = system: HCT-15 colon
# HOP-62 NSCLC = system: HOP-62 NSCLC
# HOP-92 NSCLC = system: HOP-92 NSCLC
# HS 578T breast = system: HS 578T breast
# HT29 colon = system: HT29 colon
# IGROV1 ovarian = system: IGROV1 ovarian
# K-562 leukemia = system: K-562 leukemia
# KM12 colon = system: KM12 colon
# M14 melanoma = system: M14 melanoma
# MALME-3M melanoma = system: MALME-3M melanoma
# MDA-MB-231 breast = system: MDA-MB-231 breast
# MDA-MB-435 = system: MDA-MB-435
# MDA-N = system: MDA-N
# MOLT-4 leukemia = system: MOLT-4 leukemia
# NCI-H23 lung = system: NCI-H23 lung
# NCI-H460 lung = system: NCI-H460 lung
# NCI-H522 lung = system: NCI-H522 lung
# NCI/ADR-RES ovarian = system: NCI/ADR-RES ovarian
# OVCAR-3 ovarian = system: OVCAR-3 ovarian
# OVCAR-8 ovarian = system: OVCAR-8 ovarian
# PC-3 prostate = system: PC-3 prostate
# RPMI-8226 leukemia = system: RPMI-8226 leukemia
# SF-295 CNS = system: SF-295 CNS
# SK-MEL-2 melanoma = system: SK-MEL-2 melanoma
# SK-MEL-28 melanoma = system: SK-MEL-28 melanoma
# SK-MEL-5 melanoma = system: SK-MEL-5 melanoma
# SK-OV-3 ovarian = system: SK-OV-3 ovarian
# SN12C renal = system: SN12C renal
# SNB-75 CNS = system: SNB-75 CNS
# SR leukemia = system: SR leukemia
# T-47D breast = system: T-47D breast
# U251 CNS = system: U251 CNS
# UACC-62 melanoma = system: UACC-62 melanoma
# 786-0 renal = system: 786-0 renal
# A549 NSCLC = system: A549 NSCLC
# ACHN renal = system: ACHN renal
# BT-549 breast = system: BT-549 breast
# EKVX NSCLC = system: EKVX NSCLC
# HCC-2998 colon = system: HCC-2998 colon
# HL-60(TB) leukemia = system: HL-60(TB) leukemia
# LOX IMVI melanoma = system: LOX IMVI melanoma
# MCF7 breast = system: MCF7 breast
# NCI-H226 lung = system: NCI-H226 lung
# OVCAR-4 ovarian = system: OVCAR-4 ovarian
# OVCAR-5 ovarian = system: OVCAR-5 ovarian
# SF-539 CNS = system: SF-539 CNS
# SNB-19 CNS = system: SNB-19 CNS
# SW-620 colon = system: SW-620 colon
# TK-10 renal = system: TK-10 renal
# UACC-257 melanoma = system: UACC-257 melanoma
# UO-31 renal = system: UO-31 renal
# RXF 393 renal = system: RXF 393 renal
# SF-268 CNS = system: SF-268 CNS
compound,measurement,setting,value
C1=C(N2CCOCC2)/C(=C2\SC(=Nc3ccccc3)C(=Nc3ccccc3)N2c2ccccc2)CC1,TGI,A498 renal,> 100 µM
same,TGI,CAKI-1 renal,> 100 µM
same,TGI,CCRF-CEM leukemia,> 100 µM
same,TGI,COLO 205 colon,> 100 µM
same,TGI,DU-145 prostate,> 100 µM
same,TGI,HCT-116 colon,> 100 µM
same,TGI,HCT-15 colon,> 100 µM
same,TGI,HOP-62 NSCLC,> 100 µM
same,TGI,HOP-92 NSCLC,> 100 µM
same,TGI,HS 578T breast,> 100 µM
same,TGI,HT29 colon,> 100 µM
same,TGI,IGROV1 ovarian,> 100 µM
same,TGI,K-562 leukemia,> 100 µM
same,TGI,KM12 colon,> 100 µM
same,TGI,M14 melanoma,> 100 µM
same,TGI,MALME-3M melanoma,> 100 µM
same,TGI,MDA-MB-231 breast,> 100 µM
same,TGI,MDA-MB-435,> 100 µM
same,TGI,MDA-N,> 100 µM
same,TGI,MOLT-4 leukemia,> 100 µM
same,TGI,NCI-H23 lung,> 100 µM
same,TGI,NCI-H460 lung,> 100 µM
same,TGI,NCI-H522 lung,> 100 µM
same,TGI,NCI/ADR-RES ovarian,> 100 µM
same,TGI,OVCAR-3 ovarian,> 100 µM
same,TGI,OVCAR-8 ovarian,> 100 µM
same,TGI,PC-3 prostate,> 100 µM
same,TGI,RPMI-8226 leukemia,> 100 µM
same,TGI,SF-295 CNS,> 100 µM
same,TGI,SK-MEL-2 melanoma,> 100 µM
same,TGI,SK-MEL-28 melanoma,> 100 µM
same,TGI,SK-MEL-5 melanoma,> 100 µM
same,TGI,SK-OV-3 ovarian,69 µM
same,TGI,SN12C renal,> 100 µM
same,TGI,SNB-75 CNS,65.4 µM
same,TGI,SR leukemia,> 100 µM
same,TGI,T-47D breast,> 100 µM
same,TGI,U251 CNS,> 100 µM
same,TGI,UACC-62 melanoma,48.9 µM
Cc1[nH]c2ncn(N)c(=N)c2c1Cc1ccccc1,TGI,786-0 renal,> 100 µM
same,TGI,A498 renal,> 100 µM
same,TGI,A549 NSCLC,> 100 µM
same,TGI,ACHN renal,> 100 µM
same,TGI,BT-549 breast,> 100 µM
same,TGI,CAKI-1 renal,> 100 µM
same,TGI,CCRF-CEM leukemia,> 100 µM
same,TGI,COLO 205 colon,> 100 µM
same,TGI,EKVX NSCLC,> 100 µM
same,TGI,HCC-2998 colon,> 100 µM
same,TGI,HCT-116 colon,> 100 µM
same,TGI,HCT-15 colon,> 100 µM
same,TGI,HL-60(TB) leukemia,> 100 µM
same,TGI,HOP-62 NSCLC,> 100 µM
same,TGI,HOP-92 NSCLC,87.8 µM
same,TGI,HT29 colon,> 100 µM
same,TGI,IGROV1 ovarian,> 100 µM
same,TGI,K-562 leukemia,> 100 µM
same,TGI,KM12 colon,> 100 µM
same,TGI,LOX IMVI melanoma,> 100 µM
same,TGI,M14 melanoma,> 100 µM
same,TGI,MALME-3M melanoma,> 100 µM
same,TGI,MCF7 breast,> 100 µM
same,TGI,MDA-MB-231 breast,> 100 µM
same,TGI,MDA-MB-435,> 100 µM
same,TGI,MDA-N,> 100 µM
same,TGI,MOLT-4 leukemia,> 100 µM
same,TGI,NCI-H226 lung,> 100 µM
same,TGI,NCI-H23 lung,> 100 µM
same,TGI,NCI-H522 lung,> 100 µM
same,TGI,NCI/ADR-RES ovarian,> 100 µM
same,TGI,OVCAR-3 ovarian,> 100 µM
same,TGI,OVCAR-4 ovarian,> 100 µM
same,TGI,OVCAR-5 ovarian,> 100 µM
same,TGI,OVCAR-8 ovarian,> 100 µM
same,TGI,PC-3 prostate,> 100 µM
same,TGI,RPMI-8226 leukemia,> 100 µM
same,TGI,SF-295 CNS,> 100 µM
same,TGI,SF-539 CNS,> 100 µM
same,TGI,SK-MEL-2 melanoma,> 100 µM
same,TGI,SK-MEL-28 melanoma,> 100 µM
same,TGI,SK-MEL-5 melanoma,> 100 µM
same,TGI,SK-OV-3 ovarian,> 100 µM
same,TGI,SN12C renal,> 100 µM
same,TGI,SNB-19 CNS,> 100 µM
same,TGI,SNB-75 CNS,> 100 µM
same,TGI,SR leukemia,> 100 µM
same,TGI,SW-620 colon,> 100 µM
same,TGI,T-47D breast,> 100 µM
same,TGI,TK-10 renal,> 100 µM
same,TGI,U251 CNS,> 100 µM
same,TGI,UACC-257 melanoma,> 100 µM
same,TGI,UACC-62 melanoma,> 100 µM
same,TGI,UO-31 renal,> 100 µM
O=[N+]([O-])c1ccc2nc(/C=C(\O)c3ccccc3)c(/C=C(\O)c3ccc(Cl)cc3)nc2c1,TGI,786-0 renal,> 100 µM
same,TGI,A498 renal,> 100 µM
same,TGI,A549 NSCLC,> 100 µM
same,TGI,ACHN renal,> 100 µM
same,TGI,BT-549 breast,> 100 µM
same,TGI,CAKI-1 renal,> 100 µM
same,TGI,CCRF-CEM leukemia,> 100 µM
same,TGI,COLO 205 colon,> 100 µM
same,TGI,DU-145 prostate,> 100 µM
same,TGI,EKVX NSCLC,> 100 µM
same,TGI,HCC-2998 colon,> 100 µM
same,TGI,HCT-116 colon,> 100 µM
same,TGI,HCT-15 colon,> 100 µM
same,TGI,HOP-62 NSCLC,88.2 µM
same,TGI,HT29 colon,> 100 µM
same,TGI,IGROV1 ovarian,> 100 µM
same,TGI,K-562 leukemia,> 100 µM
same,TGI,KM12 colon,> 100 µM
same,TGI,M14 melanoma,> 100 µM
same,TGI,MALME-3M melanoma,> 100 µM
same,TGI,MCF7 breast,> 100 µM
same,TGI,MDA-MB-231 breast,> 100 µM
same,TGI,MDA-MB-435,> 100 µM
same,TGI,MDA-N,> 100 µM
same,TGI,MOLT-4 leukemia,> 100 µM
same,TGI,NCI-H226 lung,> 100 µM
same,TGI,NCI-H23 lung,> 100 µM
same,TGI,NCI-H460 lung,> 100 µM
same,TGI,NCI-H522 lung,79.7 µM
same,TGI,NCI/ADR-RES ovarian,> 100 µM
same,TGI,OVCAR-3 ovarian,> 100 µM
same,TGI,OVCAR-4 ovarian,> 100 µM
same,TGI,OVCAR-5 ovarian,> 100 µM
same,TGI,OVCAR-8 ovarian,> 100 µM
same,TGI,PC-3 prostate,> 100 µM
same,TGI,RXF 393 renal,83.9 µM
same,TGI,SF-268 CNS,> 100 µM
same,TGI,SF-295 CNS,> 100 µM
same,TGI,SF-539 CNS,> 100 µM
same,TGI,SK-MEL-2 melanoma,> 100 µM
same,TGI,SK-MEL-5 melanoma,> 100 µM
same,TGI,SK-OV-3 ovarian,> 100 µM
same,TGI,SN12C renal,> 100 µM
same,TGI,SNB-19 CNS,> 100 µM
same,TGI,SNB-75 CNS,64.9 µM
same,TGI,SR leukemia,> 100 µM
same,TGI,T-47D breast,> 100 µM
same,TGI,TK-10 renal,> 100 µM
same,TGI,U251 CNS,> 100 µM
same,TGI,UACC-257 melanoma,> 100 µM
same,TGI,UACC-62 melanoma,> 100 µM
same,TGI,UO-31 renal,> 100 µM
O=C(CC(C(=O)c1ccsc1)c1cccs1)c1ccsc1 (stereo unspecified),TGI,786-0 renal,> 100 µM
same,TGI,A498 renal,> 100 µM
same,TGI,A549 NSCLC,> 100 µM
same,TGI,ACHN renal,> 100 µM
same,TGI,CAKI-1 renal,> 100 µM
same,TGI,CCRF-CEM leukemia,> 100 µM
same,TGI,COLO 205 colon,> 100 µM
same,TGI,DU-145 prostate,> 100 µM
same,TGI,EKVX NSCLC,> 100 µM
same,TGI,HCC-2998 colon,> 100 µM
same,TGI,HCT-15 colon,> 100 µM
same,TGI,HL-60(TB) leukemia,> 100 µM
same,TGI,HOP-62 NSCLC,> 100 µM
same,TGI,HT29 colon,> 100 µM
same,TGI,IGROV1 ovarian,> 100 µM
same,TGI,K-562 leukemia,> 100 µM
same,TGI,KM12 colon,> 100 µM
same,TGI,LOX IMVI melanoma,> 100 µM
same,TGI,M14 melanoma,> 100 µM
same,TGI,MALME-3M melanoma,> 100 µM
same,TGI,MCF7 breast,> 100 µM
same,TGI,MDA-MB-231 breast,> 100 µM
same,TGI,MDA-MB-435,> 100 µM
same,TGI,MDA-N,> 100 µM
same,TGI,MOLT-4 leukemia,> 100 µM
same,TGI,NCI-H226 lung,> 100 µM
same,TGI,NCI-H23 lung,> 100 µM
same,TGI,NCI-H460 lung,> 100 µM
same,TGI,NCI/ADR-RES ovarian,> 100 µM
same,TGI,OVCAR-4 ovarian,> 100 µM
same,TGI,OVCAR-5 ovarian,> 100 µM
same,TGI,OVCAR-8 ovarian,> 100 µM
same,TGI,PC-3 prostate,> 100 µM
same,TGI,RPMI-8226 leukemia,> 100 µM
same,TGI,SF-268 CNS,> 100 µM
same,TGI,SF-295 CNS,> 100 µM
same,TGI,SK-MEL-2 melanoma,> 100 µM
same,TGI,SK-MEL-28 melanoma,> 100 µM
same,TGI,SK-MEL-5 melanoma,> 100 µM
same,TGI,SK-OV-3 ovarian,> 100 µM
same,TGI,SN12C renal,> 100 µM
same,TGI,SNB-19 CNS,> 100 µM
same,TGI,SNB-75 CNS,> 100 µM
same,TGI,SR leukemia,> 100 µM
same,TGI,SW-620 colon,> 100 µM
same,TGI,T-47D breast,84.3 µM
same,TGI,TK-10 renal,> 100 µM
same,TGI,U251 CNS,> 100 µM
same,TGI,UACC-257 melanoma,> 100 µM
same,TGI,UACC-62 melanoma,> 100 µM
same,TGI,UO-31 renal,> 100 µM
